pIC50: −log10 of the molar value. ≈ marks a conversion by molar mass, not a printed value. Where “and” joins values, the source holds several entries; their conditions need not be identical. Identical values can stand only once. Like-named read-outs stand apart in the source and are kept apart here.
How the values were obtained:
MDA-MB-231 = test: cells; type: cell-based; settings: MDA-MB-231, 72 hours treatment, SRB
Description: (§1) Evaluation of Cytotoxic Activity Using the SRB and the MTT Colorimetric Assays

HT29 = test: cells; type: cell-based; settings: HT29, 72 hours treatment, SRB
Description: as §1

A549 = type: cell-based; settings: A549, 72 hours treatment, SRB
Description: as §1

PSN1 = type: cell-based; settings: PSN1, 72 hours treatment, SRB
Description: as §1

[1] = system: HT-1080, NB 4, Raji and RPMI 8226 cells; test: In vitro cytotoxicity across the CD13 cell panel and CD13 selectivity; type: cell-based, human; settings: CD13 positive and negative cell lines
Description: (§2) Cell survival was expressed as percentage of control, untreated cell survival.

[2] = system: SK-BR-3, HCC-1954, MDA-MB-231 and MCF-7 cells; test: In vitro cytotoxicity across the HER2 breast cancer cell panel and HER2 selectivity; type: cell-based; settings: for IC50: Homo sapiens
Method: For SK-BR-3, HCC-1954, MDA-MB-231 and MCF-7 cells, a colorimetric assay using Sulforhodamine B (SRB) was adapted for quantitative measurement of cell growth and cytotoxicity, as described in V. Vichai and K. Kirtikara. Sulforhodamine B colorimetric assay for cytotoxicity screening. Nature Protocols, 2006, 1, 1112-1116. Briefly, cells were seeded in 96-well microtiter plates and allowed to stand for 24 hours in drug-free medium before treatment with vehicle alone or with the tested substances for 72 hours.
as §2
Standard dose-response (DR) curves for 72 hours incubation with the tested substances were performed.

RPMI 8226 (CD13−) = test: In vitro cytotoxicity of ADCs and related reagents, MTT assay; type: cell-based, human; settings: RPMI8226 cells, geometric mean of the IC50 values of three experiments
Method: (§3) Briefly, cells were seeded in 96-well trays and treated as above and after 72 hours of exposure to the tested substances cellular viability was estimated from conversion of MTT (Sigma, St Louis, MO, USA) to its coloured reaction product, MTT-formazan, which was dissolved in DMSO to measure its absorbance at 540 nm in a microplate spectrophotometer.
as §2

Raji (CD13−) = test: as above; type: cell-based, human; settings: Raji cells, geometric mean of the IC50 values of three experiments
Method: as §3, §2

NB 4 (CD13+) = test: as above; type: cell-based, human; settings: NB-4 cells, geometric mean of the IC50 values of three experiments
Method: as §3, §2

HCC-1954 (HER2+) = test: In vitro cytotoxicity of ADCs and related reagents, SRB assay; type: cell-based; settings: Homo sapiens, HCC1954
Method: (§4) Sulforhodamine B colorimetric assay for cytotoxicity screening. […] Briefly, cells were seeded in 96-well microtiter plates and allowed to stand for 24 hours in drug-free medium before treatment with vehicle alone or with the tested substances for 72 hours.
as §2

SK-BR-3 (HER2+) = test: as above; type: cell-based; settings: Homo sapiens
Method: as §4, §2

MDA-MB-231 (HER2−) = test: as above; type: cell-based; settings: Homo sapiens
Method: as §4, §2

MCF-7 (HER2−) = test: as above; type: cell-based; settings: Homo sapiens, MCF7
Method: as §4, §2

[3] = read-out: LC50 (the source's name)
[4] = read-out: geometric mean IC50 value across the whole cell panel
[5] = read-out: IC50 values, range over the four cell lines
[6] = HCC-1954, HER2 positive, 72 hours, read-out: IC50
[7] = SK-BR-3, HER2 positive, 72 hours, read-out: IC50
[8] = MDA-MB-231, HER2 negative, 72 hours, read-out: IC50
[9] = MCF-7, HER2 negative, 72 hours, read-out: IC50

Row | Compound | TGI (HT29) [Molar] | TGI (A549) [Molar] | TGI (PSN1) [Molar] | IC50 [2, 5] | IC50 [2, 4] | IC50 (HCC-1954 (HER2+); [6]) | IC50 (SK-BR-3 (HER2+); [7]) | IC50 (MDA-MB-231 (HER2−); [8]) | IC50 (MCF-7 (HER2−); [9]) | other results
1 | COc1c(C)cc2c(c1O)C1C3C4SCC5(NC(COC(C)=O)Cc6c5[nH]c5ccccc65)C(=O)OCC(c5c6c(c(C)c(OC(C)=O)c54)OCO6)N3C(C#N)C(C2)N1C (stereo not shown) [3a-S] | 3.23E-09 | 3.23E-09 | 3.59E-09 | – | – | – | – | – | – | GI50 (MDA-MB-231): 2.87 nM; TGI (MDA-MB-231): 3.59E-09 Molar; CC50 (MDA-MB-231; [3]): 4.9 nM; GI50 (HT29): 2.99 nM; CC50 (HT29; [3]): > 120 nM; GI50 (A549): 3.11 nM; LC50 (concentration giving 50% net cell kill) (A549): > 120 nM; GI50 (PSN1): 2.15 nM; CC50 (PSN1; [3]): 12 nM
2 | COc1c(C)cc2c(c1O)[C@@H]1[C@@H]3[C@@H]4SC[C@]5(N[C@@H](CN)Cc6c5[nH]c5ccccc65)C(=O)OC[C@@H](c5c6c(c(C)c(OC(C)=O)c54)OCO6)N3[C@@H](C#N)[C@H](C2)N1C [11-R] | – | – | – | – | – | – | – | – | – | geometric mean IC50 value across the whole cell panel [1]: 0.84 ng/mL; pIC50 [1, 4]: 8.97; geometric mean IC50 value across the whole cell panel ([2]; SK-BR-3, HCC-1954, MDA-MB-231, MCF-7): 0.79 ng/mL; pIC50 ([2]; SK-BR-3, HCC-1954, MDA-MB-231, MCF-7, read-out: geometric mean IC50 value across the whole cell panel): 9.00; IC50 RPMI8226 (CD13 negative) (RPMI 8226 (CD13−)): 0.928 ng/mL (≈ 1.17 nM); pIC50 (RPMI 8226 (CD13−); read-out: IC50 RPMI8226 (CD13 negative)): 8.93; IC50 Raji (CD13 negative) (Raji (CD13−)): 0.967 ng/mL (≈ 1.22 nM); pIC50 (Raji (CD13−); read-out: IC50 Raji (CD13 negative)): 8.91; IC50 NB-4 (CD13 positive) (NB 4 (CD13+)): 0.46 ng/mL (≈ 0.58 nM); pIC50 (NB 4 (CD13+); read-out: IC50 NB-4 (CD13 positive)): 9.24
3 | COc1ccc2[nH]c3c(c2c1)C[C@H](CN)N[C@]31CS[C@@H]2c3c(OC(C)=O)c(C)c4c(c3[C@H](COC1=O)N1[C@@H]2[C@H]2c3c(cc(C)c(OC)c3O)C[C@@H]([C@@H]1O)N2C)OCO4 [27-R] | 5.53E-10 | 3.93E-09 | 1.17E-09 | – | – | – | – | – | – | TGI (MDA-MB-231): 5.41E-10 Molar
4 | COc1ccc2[nH]c3c(c2c1)C[C@@H](CN)N[C@]31CS[C@@H]2c3c(OC(C)=O)c(C)c4c(c3[C@H](COC1=O)N1[C@@H]2[C@H]2c3c(cc(C)c(OC)c3O)C[C@@H]([C@@H]1O)N2C)OCO4 [27-S] | 1.35E-09 | 1.12E-08 | 2.83E-09 | – | – | – | – | – | – | –
5 | COc1c(C)cc2c(c1O)[C@@H]1[C@@H]3[C@@H]4SC[C@]5(N[C@@H](CN)Cc6c5oc5ccccc65)C(=O)OC[C@@H](c5c6c(c(C)c(OC(C)=O)c54)OCO6)N3[C@@H](C#N)[C@H](C2)N1C [46-R] | – | – | – | – | – | – | – | – | – | IC (TGI) (MDA-MB-231; Homo sapiens): 1.39 nM; IC (TGI) (HT29; Homo sapiens, HT-29): 1.39 nM
6 | COc1c(C)cc2c(c1O)[C@@H]1[C@@H]3[C@@H]4SC[C@]5(N[C@@H](CNC(=O)OCc6ccc(NC(=O)[C@H](CCCNC(N)=O)NC(=O)[C@@H](NC(=O)CCCCCN7C(=O)C=CC7=O)C(C)C)cc6)Cc6c5[nH]c5ccccc65)C(=O)OC[C@@H](c5c6c(c(C)c(OC(C)=O)c54)OCO6)N3[C@@H](C#N)[C@H](C2)N1C [DL 1] | – | – | – | 0.07 µg/mL to 0.43 µg/mL and 52.3 nM to 311 nM | 0.16 µg/mL and 115 nM | 0.18 µg/mL and 129 nM | 0.116 µg/mL and 83.1 nM | 0.0728 µg/mL and 52.3 nM | 0.433 µg/mL and 311 nM | –
7 | COc1c(C)cc2c(c1O)[C@@H]1[C@@H]3[C@@H]4SC[C@]5(N[C@@H](CNC(=O)OCc6ccc(NC(=O)[C@H](CCCNC(N)=O)NC(=O)[C@@H](NC(=O)CCOCCOCCOCCOCCNC(=O)CCN7C(=O)C=CC7=O)C(C)C)cc6)Cc6c5[nH]c5ccccc65)C(=O)OC[C@@H](c5c6c(c(C)c(OC(C)=O)c54)OCO6)N3[C@@H](C#N)[C@H](C2)N1C [DL 2] | – | – | – | 0.2 µg/mL to 0.47 µg/mL and 125 nM to 294 nM | 0.28 µg/mL and 173 nM | 0.31 µg/mL and 194 nM | 0.2 µg/mL and 125 nM | 0.2 µg/mL and 125 nM | 0.469 µg/mL and 294 nM | –
8 | COc1c(C)cc2c(c1O)[C@@H]1[C@@H]3[C@@H]4SC[C@]5(N[C@@H](CNC(=O)OCc6ccc(NC(=O)[C@H](C)NC(=O)[C@@H](NC(=O)CCOCCOCCOCCOCCNC(=O)CCN7C(=O)C=CC7=O)C(C)C)cc6)Cc6c5[nH]c5ccccc65)C(=O)OC[C@@H](c5c6c(c(C)c(OC(C)=O)c54)OCO6)N3[C@@H](C#N)[C@H](C2)N1C [DL 3] | – | – | – | 0.15 µg/mL to 0.28 µg/mL and 99.3 nM to 185 nM | 0.2 µg/mL and 133 nM | 0.24 µg/mL and 159 nM | 0.16 µg/mL and 106 nM | 0.15 µg/mL and 99.3 nM | 0.279 µg/mL and 185 nM | –
9 | COc1c(C)cc2c(c1O)[C@@H]1[C@@H]3[C@@H]4SC[C@]5(N[C@@H](CNC(=O)OCc6ccc(NC(=O)[C@H](C)NC(=O)[C@@H](NC(=O)CCOCCOCCOCCOCCNC(=O)CCN7C(=O)C=CC7=O)C(C)C)cc6)Cc6c5[nH]c5ccccc65)C(=O)OC[C@@H](c5c6c(c(C)c(OC(C)=O)c54)OCO6)N3[C@@H](O)[C@H](C2)N1C [DL 5] | – | – | – | 0.1 µg/mL to 0.19 µg/mL and 65.3 nM to 127 nM | 0.13 µg/mL and 88.4 nM | 0.191 µg/mL and 127 nM | 0.0981 µg/mL and 65.3 nM | 0.0981 µg/mL and 65.3 nM | 0.17 µg/mL and 113 nM | –
10 | COc1c(C)cc2c(c1O)[C@@H]1[C@@H]3[C@@H]4SC[C@]5(N[C@@H](CNC(=O)OCc6ccc(NC(=O)[C@H](CCCNC(N)=O)NC(=O)[C@@H](NC(=O)CCCCCN7C(=O)C=CC7=O)C(C)C)cc6)Cc6c5[nH]c5ccccc65)C(=O)OC[C@@H](c5c6c(c(C)c(OC(C)=O)c54)OCO6)N3[C@@H](O)[C@H](C2)N1C [DL 6] | – | – | – | 0.04 µg/mL to 0.3 µg/mL and 31 nM to 197 nM | 0.11 µg/mL and 78.9 nM | – | – | – | – | IC50 (HCC-1954 (HER2+); HCC-1954 cells, 72 hours incubation, read-out: IC50 HCC-1954 (HER2 positive)): 0.171 µg/mL and 124 nM; IC50 (SK-BR-3 (HER2+); SK-BR-3 cells, 72 hours incubation, read-out: IC50 SK-BR-3 (HER2 positive)): 0.0709 µg/mL and 51.3 nM; IC50 (MDA-MB-231 (HER2−); MDA-MB-231 cells, 72 hours incubation, read-out: IC50 MDA-MB-231 (HER2 negative)): 0.0429 µg/mL and 31 nM; IC50 (MCF-7 (HER2−); MCF-7 cells, 72 hours incubation, read-out: IC50 MCF-7 (HER2 negative)): 0.273 µg/mL and 197 nM
